{"source": "patent US12091652B2", "about": "“Ammonia-oxidizing Nitrosomonas eutropha strain D23” (priority 2014, dated 2024)", "test_system": "Nitrosomonas eutropha D23", "assay": "Antibiotic susceptibility (MIC) of N. eutropha D23 cultures in vitro", "format": "cell-based", "conditions": "for MIC: 30° C., 48-72 hr, OD600, two-fold dilution series; for MIC Interpretive Criteria (phenotype of N. eutropha D23): CLSI criteria, MIC levels of the outcome stand in parentheses in the cell", "method": "The activities of five antibiotics, each representing a different antibiotic class, were tested against Nitrosomonas eutropha D23. The antibiotics tested included clindamycin, erythromycin, gentamicin, piperacillin with or without the β-lactamase inhibitor Tazobactam, and tetracycline. These were chosen based on the Clinical and Laboratory Standards Institute (CLSI) recommendations for routine testing and reporting of phylogenetically-related proteobacteria (Pseudomonas aeruginosa) listed under Non-fastidious organisms and Non-Enterobacteriaceae in the CLSI 24th Informational Supplement (M100-S24), and also included topical or systemic antimicrobial agents commonly used against acne, such as clindamycin or tetracycline. Studies with clindamycin were included even though this antibiotic was not expected to be very effective at inhibiting Nitrosomonas, as is the case for other aerobic Gram-negative bacteria.\nMinimal Inhibitory Concentrations (MICs) were determined by culturing N. eutropha D23 in decreasing concentrations of each of the five antibiotics. Bacterial growth at 30° C. was monitored for 48-72 hr by determining optical density (OD600) values in samples collected at 24 hr intervals. MIC values were identified as the lowest antibiotic concentration from a two-fold dilution series leading to no increase in OD600 measurements for the 2 or 3-day incubation period. The N. eutropha D23 phenotype in each antibiotic test was determined as Susceptible, Intermediate, or Resistant according to the MIC Interpretive Criteria provided by the CLSI. […] Clindamycin resistance observed for N. eutropha D23 is in agreement with previous reports for natural resistance of aerobic Gram-negative bacteria to this antibiotic. In addition to testing the β-lactam antibiotic piperacillin alone, the broad range β-lactamase inhibitor Tazobactam was also tested in combination with piperacillin to assess the possible expression of β-lactamase(s) by N. eutropha D23.", "key": {"[1]": {"conditions": "Nitrosomonas eutropha, D23, read-out: MIC"}}, "note": "Read-outs that look alike come from different tables or passages of the source."}
{"molecule": "Gentamicin", "values": [{"measurement": "MIC", "value": 0.25, "unit": "µg/mL"}, {"measurement": "MIC Interpretive Criteria (phenotype of N. eutropha D23)", "value": "Susceptible (≤4 μg/ml)"}, {"measurement": "MIC Interpretive Criteria (phenotype of N. eutropha D23)", "setting": "listed as gentamicin", "value": "susceptibility"}]}
{"molecule": "CCC[C@@H]1C[C@@H](C(=O)N[C@@H]([C@H]2O[C@H](SC)[C@H](O)[C@@H](O)[C@H]2O)[C@H](C)Cl)N(C)C1", "note": "[Clindamycin]", "values": [{"measurement": "MIC", "setting": "[1]", "value": "> 16", "unit": "µg/mL"}]}
{"molecule": "Piperacillin/Tazobactam", "values": [{"measurement": "MIC", "value": "64/4"}, {"measurement": "MIC Interpretive Criteria (phenotype of N. eutropha D23)", "value": "Intermediate"}]}
{"molecule": "CCN1CCN(C(=O)N[C@@H](C(=O)N[C@@H]2C(=O)N3[C@@H]2SC(C)(C)[C@@H]3C(=O)O)c2ccccc2)C(=O)C1=O", "note": "[Piperacillin]", "values": [{"measurement": "MIC Interpretive Criteria (phenotype of N. eutropha D23)", "value": "Intermediate (32-64 μg/ml)"}, {"measurement": "MIC Interpretive Criteria (phenotype of N. eutropha D23)", "setting": "listed as piperacillin", "value": "intermediate resistance"}, {"measurement": "MIC", "setting": "[1]", "value": 64, "unit": "µg/mL"}]}
{"molecule": "C[C@]1(Cn2ccnn2)[C@H](C(=O)O)N2C(=O)C[C@H]2S1(=O)=O", "note": "[Tazobactam]", "values": [{"measurement": "effect of adding the β-lactamase inhibitor to piperacillin on N. eutropha D23 susceptibility", "setting": "in combination with piperacillin", "value": "no increase in N. eutropha D23 susceptibility"}]}
{"molecule": "CN(C)[C@@H]1C(O)=C(C(N)=O)C(=O)[C@@]2(O)C(O)=C3C(=O)c4c(O)cccc4[C@@](C)(O)[C@H]3C[C@@H]12", "note": "[Tetracycline]", "values": [{"measurement": "MIC", "setting": "[1]", "value": 8, "unit": "µg/mL"}]}
{"molecule": "CC[C@H]1OC(=O)[C@H](C)[C@@H](O[C@H]2C[C@@](C)(OC)[C@@H](O)[C@H](C)O2)[C@H](C)[C@@H](O[C@@H]2O[C@H](C)C[C@H](N(C)C)[C@H]2O)[C@](C)(O)C[C@@H](C)C(=O)[C@H](C)[C@@H](O)[C@]1(C)O", "note": "[Erythromycin]", "values": [{"measurement": "MIC Interpretive Criteria (phenotype of N. eutropha D23)", "value": "Susceptible (≤0.5 μg/ml)"}, {"measurement": "MIC Interpretive Criteria (phenotype of N. eutropha D23)", "setting": "listed as erythromycin", "value": "susceptibility"}, {"measurement": "MIC", "setting": "[1]", "value": 0.16, "unit": "µg/mL"}]}
